The values below come from US20070249720A1, “Thiourea Derivative-Containing Pharmaceutical Composition Having Improved Solubility and Bioavailability” (priority 2003, published 2007).

Data set [1] is described as follows: Comparative dissolution test (Paddle method, Korean pharmacopoeia). It is filed as physicochemical. Particulars: water as release solvent, 37° C., 50 rpm, FIG. 1. The protocol: 1-(4-t-butylbenzyl)-3-(3-fluoro-4-methanesulfonylaminobenzyl)thiourea (Compound 1) and the tablet prepared in Formulation Example 2 were subjected to test in accordance with dissolution test method II (Paddle method) described in Korean pharmacopoeia using water as a release solvent.
3 ml samples were taken at a given time interval under the condition of 37° C. and 50 rpm, and filtered through a 0.45 micrometer filter. The concentration of Compound 1 in each sample was determined by HPLC.

Data set [2] can be described thus: Solubility of Compound 1 in 2-hydroxypropyl-β-cyclodextrin solution in glycine buffer (pH 10.5) (HPLC). Type of data set: physicochemical. The note with it: thermodynamic from solid, stirred 72 hours. The protocol:
0.4 g of 1-(4-t-butylbenzyl)-3-(3-fluoro-4-methanesulfonylaminobenzyl)thiourea (Compound 1) was added to each 10 ml of 0, 1.5, 3.5, 7.0, 14.0 and 28.0 w/v % 2-hydroxypropyl-β-cyclodextrin solution in glycine buffer (pH 10.5). The resulting mixture was stirred for 72 hours, filtered through a 0.2 micrometer filter paper.
The concentration of Compound 1 in the filtrate was determined by high performance liquid chromatography (HPLC) and the solubility of Compound 1 depending on the concentration of 2-hylroxypropyl-β-cyclodextrin is presented in Table 2.

Data set [3] is described as follows: Solubility of Compound 1 in aqueous 2-hydroxypropyl-β-cyclodextrin solutions (HPLC). The note with it: aqueous 2-hydroxypropyl-β-cyclodextrin solution, thermodynamic from solid, stirred 72 hours. It is filed as physicochemical. As for the experimental part: 0.4 g of 1-(4-t-butylbenzyl)-3-(3-fluoro-4-methanesulfonylaminobenzyl)thiourea (Compound 1) was added to each 10 ml of 0, 1.5, 3.5, 7.0, 14.0 and 28.0 w/v % aqueous solutions of 2-hydroxypropyl-β-cyclodextrin. The resulting mixture was stirred for 72 hours, filtered through a 0.2 micrometer filter paper. The concentration of Compound 1 in the filtrate was determined by high performance liquid chromatography (HPLC) and the solubility of Compound 1 depending on the concentration of 2-hydroxypropyl-β-cyclodextrin is presented in Table 1.

The nature of data set [4]: Solubility of Compound 1 in 95% ethanol solution containing 2-hydroxypropyl-β-cyclodextrin (HPLC). It is filed as physicochemical. Particulars: organic solvent or mixture, thermodynamic from solid, stirred 72 hours. The protocol:
5 g of 1-(4-t-butylbenzyl)-3-(3-fluoro-4-methanesulfonylaminobenzyl)thiourea (Compound 1) was added to 100 ml of 95% ethanol solution containing 0, 1.0, 2.0, 5.0, 10.0 or 20.0 w/v % of 2-hylroxypropyl-β-cyclodextrin, and the mixture was stirred for 72 hours and then filtered through a 0.2 micrometer filter paper. The concentration of Compound 1 in the filtrate was determined by high performance liquid chromatography (HPLC) and the solubility of Compound 1 depending on the concentration of 2-hydroxypropyl-β-cyclodextrin is presented in Table 4.

Data set [5] is described as follows: Test for pharmacokinetics after oral administration to rats. Type of data set: in vivo. Particulars: orally administered, 10 mg/kg. An excerpt: 1-(4-t-Butylbenzyl)-3-(3-fluoro-4-methanesulfonylaminobenzyl)thiourea (Compound 1) and the liquid formulation prepared in Formulation Example 3 were each orally administered to rats, and the changes in the plasma drug concentration were monitored according to a set time schedule. Each experimental animal group consisted of four male rats. After the rats were anesthetized with ether and operated for inserting a PE-50 polyethylene tube into the femoral artery, the suspension of Compound 1 in 0.5% sodium carboxymethylcellulose solution and the liquid formulation of Formulation Example 3 were each orally administered to the rats. At 15, 30, 60, 120, 210, 300 and 480 minutes after the administration, 150 micro liter blood samples were taken from the rats. Each blood sample was centrifuged to separate plasma, which was then subjected to HPLC to determine the concentration of Compound 1 in plasma.

The structures appear in SMILES notation. In brackets after ≈: the same amount, converted by molar mass.

A word on the solubility: it is the concentration that dissolves in the medium under given conditions. The term bioavailability denotes dose-corrected exposure relative to a reference, in per cent. On to `CC(C)(C)c1ccc(CNC(=S)NCc2ccc(NS(C)(=O)=O)c(F)c2)cc1` [Compound 1, 1-(4-t-butylbenzyl)-3-(3-fluoro-4-methanesulfonylaminobenzyl)thiourea], for which the “percent dissolution of drug” value in data set [1] is given as “insoluble in water”. Besides, the solubility at 72 h came out at 0.05 mg/mL (≈ 0.118 mM) in data set [2] (pH 10.5, aqueous buffer, 0 w/v % 2-hydroxypropyl-β-cyclodextrin); 2.7 mg/mL (≈ 6.37 mM) in data set [2] (pH 10.5, aqueous with cosolvent or surfactant or cyclodextrin, 1.5 w/v % 2-hydroxypropyl-β-cyclodextrin); 4.8 mg/mL (≈ 11.3 mM) in data set [2] (pH 10.5, aqueous with cosolvent or surfactant or cyclodextrin, 3.5 w/v % 2-hydroxypropyl-β-cyclodextrin); 9.62 mg/mL (≈ 22.7 mM) in data set [2] (pH 10.5, aqueous with cosolvent or surfactant or cyclodextrin, 7.0 w/v % 2-hydroxypropyl-β-cyclodextrin); 18 mg/mL (≈ 42.5 mM) in data set [2] (pH 10.5, aqueous with cosolvent or surfactant or cyclodextrin, 14.0 w/v % 2-hydroxypropyl-β-cyclodextrin); 32.5 mg/mL (≈ 76.7 mM) in data set [2] (pH 10.5, aqueous with cosolvent or surfactant or cyclodextrin, 28.0 w/v % 2-hydroxypropyl-β-cyclodextrin). The solubility at 72 h in data set [3] (aqueous with cosolvent or surfactant or cyclodextrin, 1.5 w/v % 2-hydroxypropyl-β-cyclodextrin) is 0.4 mg/mL (≈ 0.944 mM); in data set [3] (aqueous with cosolvent or surfactant or cyclodextrin, 3.5 w/v % 2-hydroxypropyl-β-cyclodextrin), 1.04 mg/mL (≈ 2.46 mM); in data set [3] (aqueous with cosolvent or surfactant or cyclodextrin, 7.0 w/v % 2-hydroxypropyl-β-cyclodextrin) it was 4.18 mg/mL (≈ 9.87 mM); in data set [3] (aqueous with cosolvent or surfactant or cyclodextrin, 14.0 w/v % 2-hydroxypropyl-β-cyclodextrin), 12.2 mg/mL (≈ 28.9 mM); in data set [3] (aqueous with cosolvent or surfactant or cyclodextrin, 28.0 w/v % 2-hydroxypropyl-β-cyclodextrin) it was 29 mg/mL (≈ 68.4 mM); in data set [3] (water, 0 w/v % 2-hydroxypropyl-β-cyclodextrin), 0.01 mg/mL (≈ 0.0236 mM). Moreover, the solubility at 72 h in data set [4] (0 w/v % 2-hydroxypropyl-β-cyclodextrin) was found to be 19.7 mg/mL (≈ 46.6 mM); in data set [4] (1.0 w/v % 2-hydroxypropyl-β-cyclodextrin), 21.2 mg/mL (≈ 50.1 mM); in data set [4] (2.0 w/v % 2-hydroxypropyl-β-cyclodextrin), 22.7 mg/mL (≈ 53.5 mM); in data set [4] (5.0 w/v % 2-hydroxypropyl-β-cyclodextrin), 27.2 mg/mL (≈ 64.3 mM); in data set [4] (10.0 w/v % 2-hydroxypropyl-β-cyclodextrin), 34.1 mg/mL (≈ 80.6 mM); in data set [4] (20.0 w/v % 2-hydroxypropyl-β-cyclodextrin), 43.5 mg/mL (≈ 103 mM). The bioavailability in data set [5] (male, rat, plasma, po, read-out: BA: Bioavailability) amounted to 16.5%. The Cmax in data set [5] (male, rat, plasma, po, read-out: Cmax: Maximum plasma concentration) turned out to be 670 ng/mL. Further, the Tmax in data set [5] (male, rat, plasma, po, read-out: Tmax: Time at the maximum plasma concentration) is 30 min. For the same molecule, the “AUC: Area under the plasma concentration vs. time curve till 24 hours” value in data set [5] is 2.79 microgram · h/ml.
